Measured values published in US20210045385A1, “PYRIDAZINONE-SUBSTITUTED KETOXIMES AS HERBICIDES” (FMC Corporation, priority 2018, published 2021).

Legend:
Format in all cases: in vivo
[1] = system: pigweed (Amaranthus retroflexus); test: Test C preemergence, visual plant response rating; settings: Test C, 0 is no effect, 100 is complete control
Method in brief: (§1)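 Compounds in a non-phytotoxic solvent with surfactant were applied as a directed soil spray preemergence or to 2–10 cm, one- to two-leaf plants postemergence, in loam–sand soil. After about 10 d in a greenhouse, injury was visually rated against untreated controls on a 0–100 scale (100 = complete control).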

[2] = system: barnyardgrass (Echinochloa crus-galli); test: Test C preemergence, visual plant response rating; settings: Test C, 0 is no effect, 100 is complete control
Method in brief: as §1

kochia (Bassia scoparia) [3] = test: Test C preemergence, visual plant response rating; settings: Test C, 0 is no effect, 100 is complete control
Method in brief: as §1

[4] = system: Italian ryegrass (Lolium mutiflorum); test: Test C preemergence, visual plant response rating; settings: Test C, 0 is no effect, 100 is complete control
Method in brief: as §1

[5] = system: ragweed (common ragweed, Ambrosia artemisiifolia); test: Test C preemergence, visual plant response rating; settings: Test C, 0 is no effect, 100 is complete control
Method in brief: as §1

[6] = system: foxtail, giant (giant foxtail, Setaria faberi); test: Test C preemergence, visual plant response rating; settings: Test C, 0 is no effect, 100 is complete control
Method in brief: as §1

[7] = system: pigweed (Amaranthus retroflexus); test: Test C postemergence, visual plant response rating
Method in brief: as §1

[8] = system: wheat (Triticum aestivum); test: Test C postemergence, visual plant response rating
Method in brief: as §1

[9] = system: barnyardgrass (Echinochloa crus-galli); test: Test C postemergence, visual plant response rating
Method in brief: as §1

[10] = system: galium (catchweed bedstraw, Galium aparine); test: Test C postemergence, visual plant response rating
Method in brief: as §1

[11] = system: blackgrass (Alopecurus myosuroides); test: Test C postemergence, visual plant response rating
Method in brief: as §1

kochia (Bassia scoparia) [12] = test: Test C postemergence, visual plant response rating
Method in brief: as §1

[13] = system: Italian ryegrass (Lolium mutiflorum); test: Test C postemergence, visual plant response rating
Method in brief: as §1

corn (Zea mays) = test: Test C postemergence, visual plant response rating
Method in brief: as §1

[14] = system: ragweed (common ragweed, Ambrosia artemisiifolia); test: Test C postemergence, visual plant response rating
Method in brief: as §1

[15] = system: foxtail, giant (giant foxtail, Setaria faberi); test: Test C postemergence, visual plant response rating
Method in brief: as §1

rice (Oryza sativa) = test: Test D flooded paddy test, visual plant response rating; settings: 250 g ai/ha, scale 0 to 100 (0 no effect, 100 complete control), 13 to 15 d
Method in brief: (§2)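 2-leaf plants, flooded 3 cm, cpd into paddy water; greenhouse 13–15 d; visual rating vs controls, 0 = no effect, 100 = complete control; dash = no result.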

[16] = system: barnyardgrass (Echinochloa crus-galli); test: as above; settings: 250 g ai/ha, scale 0 to 100 (0 no effect, 100 complete control), 13 to 15 d
Method in brief: as §2

[17] = system: sedge umbrella (small-flower umbrella sedge, Cyperus difformis); test: as above; settings: 250 g ai/ha, scale 0 to 100 (0 no effect, 100 complete control), 13 to 15 d
Method in brief: as §2

[18] = system: duck salad (Heteranthera limosa); test: as above; settings: 250 g ai/ha, scale 0 to 100 (0 no effect, 100 complete control), 13 to 15 d
Method in brief: as §2

[19] = Test C, postemergence, 125 g ai/ha

Compound	Pigweed plant response rating (0 to 100 scale) ([1]; 31 g ai/ha)	Pigweed plant response rating (0 to 100 scale) ([1]; 125 g ai/ha)	Barnyardgrass plant response rating (0 to 100 scale) ([2]; 31 g ai/ha)	Barnyardgrass plant response rating (0 to 100 scale) ([2]; 125 g ai/ha)	Kochia plant response rating (0 to 100 scale) (kochia (Bassia scoparia) [3]; 31 g ai/ha)	Kochia plant response rating (0 to 100 scale) (kochia (Bassia scoparia) [3]; 125 g ai/ha)	Ryegrass, Italian plant response rating (0 to 100 scale) ([4]; 31 g ai/ha)	Ryegrass, Italian plant response rating (0 to 100 scale) ([4]; 125 g ai/ha)	Ragweed plant response rating (0 to 100 scale) ([5]; 31 g ai/ha)	Ragweed plant response rating (0 to 100 scale) ([5]; 125 g ai/ha)	Foxtail, Giant plant response rating (0 to 100 scale) ([6]; 31 g ai/ha)	Foxtail, Giant plant response rating (0 to 100 scale) ([6]; 125 g ai/ha)	Pigweed plant response rating (0 to 100 scale) ([7]; Postemergence, 31 g ai/ha)	Pigweed plant response rating (0 to 100 scale) [7, 19]	Wheat plant response rating (0 to 100 scale) ([8]; Postemergence, 31 g ai/ha)	Wheat plant response rating (0 to 100 scale) [8, 19]	Barnyardgrass plant response rating (0 to 100 scale) ([9]; Postemergence, 31 g ai/ha)	Barnyardgrass plant response rating (0 to 100 scale) [9, 19]	Galium plant response rating (0 to 100 scale) ([10]; Postemergence, 31 g ai/ha)	Galium plant response rating (0 to 100 scale) [10, 19]	further results
C#CCON=C(c1cccc(OCC)c1)c1c(O)c(C)nn(C)c1=O [Compound 199]	0	10	0	0	0	0	0	20	0	0	0	10	0	0	0	0	0	20	20	30	Blackgrass plant response rating (0 to 100 scale) ([11]; Postemergence, 31 g ai/ha): 0; Blackgrass plant response rating (0 to 100 scale) [11, 19]: 20; Kochia plant response rating (0 to 100 scale) (kochia (Bassia scoparia) [12]; Postemergence, 31 g ai/ha): 0; Kochia plant response rating (0 to 100 scale) (kochia (Bassia scoparia) [12]; [19]): 0; Ryegrass, Italian plant response rating (0 to 100 scale) ([13]; Postemergence, 31 g ai/ha): 0; Ryegrass, Italian plant response rating (0 to 100 scale) [13, 19]: 0; Corn plant response rating (0 to 100 scale) (corn (Zea mays); Postemergence, 31 g ai/ha): 0; Corn plant response rating (0 to 100 scale) (corn (Zea mays); [19]): 0; Ragweed plant response rating (0 to 100 scale) ([14]; Postemergence, 31 g ai/ha): 0; Ragweed plant response rating (0 to 100 scale) [14, 19]: 0; Foxtail, Giant plant response rating (0 to 100 scale) ([15]; Postemergence, 31 g ai/ha): 0; Foxtail, Giant plant response rating (0 to 100 scale) [15, 19]: 20; Plant response rating, Rice (Flood) (rice (Oryza sativa)): 0; Plant response rating, Barnyardgrass (Flood) [16]: 0; Plant response rating, Sedge, Umbrella (Flood) [17]: 0; Plant response rating, Ducksalad (Flood) [18]: 0
CCOc1cccc(C(=NOC)c2c(O)c(C)nn(C)c2=O)c1 [Compound 200]	0	0	0	0	0	0	0	0	0	0	0	10	0	0	0	0	20	30	30	40	Blackgrass plant response rating (0 to 100 scale) ([11]; Postemergence, 31 g ai/ha): 0; Blackgrass plant response rating (0 to 100 scale) [11, 19]: 0; Kochia plant response rating (0 to 100 scale) (kochia (Bassia scoparia) [12]; Postemergence, 31 g ai/ha): 0; Kochia plant response rating (0 to 100 scale) (kochia (Bassia scoparia) [12]; [19]): 0; Ryegrass, Italian plant response rating (0 to 100 scale) ([13]; Postemergence, 31 g ai/ha): 0; Ryegrass, Italian plant response rating (0 to 100 scale) [13, 19]: 0; Corn plant response rating (0 to 100 scale) (corn (Zea mays); Postemergence, 31 g ai/ha): 0; Corn plant response rating (0 to 100 scale) (corn (Zea mays); [19]): 0; Ragweed plant response rating (0 to 100 scale) ([14]; Postemergence, 31 g ai/ha): 0; Ragweed plant response rating (0 to 100 scale) [14, 19]: 0; Foxtail, Giant plant response rating (0 to 100 scale) ([15]; Postemergence, 31 g ai/ha): 10; Foxtail, Giant plant response rating (0 to 100 scale) [15, 19]: 20; Plant response rating, Rice (Flood) (rice (Oryza sativa)): 0; Plant response rating, Barnyardgrass (Flood) [16]: 0; Plant response rating, Sedge, Umbrella (Flood) [17]: 0; Plant response rating, Ducksalad (Flood) [18]: 0
